Data taken from patent publication US20060142247A1, “Tricyclic heterocycles” (priority 2004, published 2006).

Target: T1, Aurora A (Homo sapiens, UniProt O14965)
T1 construct: C-terminally Histidine4 (His4)-tagged Aurora A full-length protein; His4 (C)
T1 sequence (O14965 1-403): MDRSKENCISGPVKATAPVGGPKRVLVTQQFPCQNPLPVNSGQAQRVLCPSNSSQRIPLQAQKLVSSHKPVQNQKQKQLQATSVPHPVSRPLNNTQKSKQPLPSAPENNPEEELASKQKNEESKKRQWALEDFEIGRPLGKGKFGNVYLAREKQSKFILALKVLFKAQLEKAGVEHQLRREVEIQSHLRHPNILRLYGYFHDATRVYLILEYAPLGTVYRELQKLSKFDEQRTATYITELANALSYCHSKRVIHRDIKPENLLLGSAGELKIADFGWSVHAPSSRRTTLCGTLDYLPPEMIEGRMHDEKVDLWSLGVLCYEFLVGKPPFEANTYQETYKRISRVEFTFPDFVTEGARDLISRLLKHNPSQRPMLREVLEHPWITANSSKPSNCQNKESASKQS
Assay: IC50 determination for inhibitors of Aurora A (96 MTP-ELISA)
Assay type: biochemical
Details: His4-tagged full-length Aurora A 250 ng/ml, PKB-GSK2 200 nM, ATP 4 μM, 90 min room temperature, read-out: IC50 Aurora A kinase inhibition
Summary of the method: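 ELISA read-out: after EDTA stop, phospho-GSK3-alpha (Ser 21) Mab and HRP-linked anti-mouse IgG detected with ABTS at 405/492 nm. The kinase step used His4-tagged full-length Aurora A, 250 ng/ml, 200 nM biotin peptide, ATP 4 μM, pH 7.8, 90 min at RT. Compounds tested at eight concentrations, 100 μM down to 0.00128 μM, for curve-fit IC50.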

IC50	Compound
1 to 100 nM	CC1(C)C(=O)N(CC(O)CO)c2cc3[nH]c(-c4n[nH]c5ccccc45)nc3cc21 (stereo not shown) [Example 35, 5-(2,3-Dihydroxy-propyl)-2-(1H-indazol-3-yl)-7,7-dimethyl-5,7-dihydro-3H-imidazo [4,5-f]indol-6-one]
1 to 100 nM	CN(C)CCCN1C(=O)C(C)(C)c2cc3nc(-c4n[nH]c5ccccc45)[nH]c3cc21 [Example 21, 5-(3-Dimethylamino-propyl)-2-(1H-indazol-3-yl)-7,7-dimethyl-5,7-dihydro-3H-imidazo[4,5-f]indol-6-one]
1 to 100 nM	CCOC(=O)CN1C(=O)C(C)(C)c2cc3nc(-c4n[nH]c5ccccc45)[nH]c3cc21 [Example 23, [2-(1H-Indazol-3-yl)-7,7-dimethyl-6-oxo-6,7-dihydro-3H-imidazo[4,5-f]indol-5-yl]-acetic acid ethyl ester]
1 to 100 nM	C=CCCN1C(=O)C(C)(C)c2cc3nc(-c4n[nH]c5ccccc45)[nH]c3cc21 [Example 15, 5-But-3-enyl-2-(1H-indazol-3-yl)-7,7-dimethyl-5,7-dihydro-3H-imidazo[4,5-f]indol-6-one]
